According to patent US5200409A, “Composition and use of substituted 1,3-dithiolo-and 1,4-dithiinoquinoxalines as an antimicrobial” (The Dow Chemical Company, priority 1992, dated 1993):
Values after ≈ are worked out from the molar mass of the structure shown. Like-named read-outs stand apart in the source and are kept apart here.

Columns and labels:
Fusarium oxysporum (Fo) = test: Minimum inhibitory concentration (MIC) in malt yeast agar; type: cell-based, Fusarium oxysporum ATCC 48112; conditions: malt yeast agar; 30° C.; 72 hours for fungi; read-out: Minimum Inhibitory Concentration, Fo
Procedure: (§1) The minimum inhibitory concentration (MIC) for the compounds listed in Table I is determined for 9 bacteria, using nutrient agar: and 7 yeast and fungi, using malt yeast agar. A one percent solution of the test compound is prepared in a mixture of acetone and water. Nutrient agar is prepared at pH 6.8, representing a neutral medium, and at pH 8.2, representing an alkaline medium. The nutrient agars are prepared by adding 23 g of nutrient agar to one-liter of deionized water. In addition, the alkaline medium is prepared by adjusting a 0.04M solution of N-[tris-(hydroxymethyl)methyl]-glycine buffered deionized water with concentrated sodium hydroxide to a pH of […]. Malt yeast agar is prepared by adding 3 g yeast extract and 45 g malt agar per liter of deionized water. The specific agar is dispensed in 30 ml aliquots into 25×200 mm test tubes, capped and autoclaved for 15 minutes at 115° C. The test tubes containing the agar are cooled in a water bath until the temperature of the agar is 48° C. Then, an appropriate amount of the one percent solution of the test compound is added (except in the controls where no compound is added) to the respective test tubes so that the final concentrations are 500, 250, 100, 50, 25, 10, 5, 2.5, 1.0 and zero parts per million of the test compound in the agar, thus having a known concentration of test compound dispersed therein. The contents of the test tubes are then transferred to respective petri plates. After drying for 24 hours, the petri plates containing nutrient agar are inoculated with bacteria and those containing malt yeast agar are inoculated with yeast and fungi.
(§2) The inoculation with the yeast and fungi is accomplished as follows. Cultures of yeast and fungi are incubated for seven days on malt yeast agar at 30° C. These cultures are used to prepare suspensions by the following procedure. A suspension of each organism is prepared by adding 10 ml of sterile saline and 10 microliters of octylphenoxy polyethoxy ethanol to the agar slant of yeast or fungi. The sterile saline/octylphenoxy polyethoxy ethanol solution is then agitated with a sterile swab to suspend the microorganism grown on the slant. Each resulting suspension is diluted into sterile saline (1 part suspension: 9 parts sterile saline). Aliquots of these dilutions are placed in individual wells of Steer's Replicator and petri plates inoculated as previously described. The petri plates are incubated at 30° C. and read after 48 hours for yeast and 72 hours for fungi.
(§3) Table II lists the bacteria, yeast and fungi used in the MIC test described above along with their respective American Type Culture Collection (ATCC) identification numbers.

[1] = tested on: Pseudomonas aeruginosa (PRD-10); test: Minimum inhibitory concentration (MIC) in nutrient agar; type: cell-based, Pseudomonas aeruginosa ATCC 15442; conditions: 48 h
Procedure: as §1
(§4) The inoculation with bacteria is accomplished by using the following procedure. Twenty-four hour-cultures of each of the bacteria are prepared by incubating the respective bacteria in tubes containing nutrient broth for 24 hours at 30° C. in a shaker. Dilutions of each of the 24 hour-cultures are made so that nine separate suspensions (one for each of the nine test bacteria) are made, each containing 10^8 colony forming units (CFU) per ml of suspension of a particular bacteria. Aliquots of 0.3 ml of each of the bacterial suspensions are used to fill the individual wells of Steer's Replicator. For each microbial suspension, 0.3 ml was used to fill three wells (i.e., three wells of 0.3 ml each) so that for the nine different bacteria, 27 wells are filled. The Steer's Replicator is then used to inoculate both the neutral and alkaline pH nutrient agar petri plates.
(§5) The inoculated petri plates are incubated at 30° C. for 48 hours and then read to determine if the test compound which is incorporated into the agar prevented growth of the respective bacteria.
as §3

Candida albicans (Ca) = test: Minimum inhibitory concentration (MIC) in malt yeast agar; type: cell-based, Candida albicans ATCC 10231; conditions: malt yeast agar; 30° C.; 48 hours for yeast; read-out: Minimum Inhibitory Concentration, Ca
Procedure: as §1, §2, §3

Trichoderma viride (Tv) = test: as above; type: cell-based, Trichoderma viride ATCC 8678; conditions: read-out: Minimum Inhibitory Concentration, Tv
Procedure: as §1, §2, §3

[2] = tested on: Salmonella choleraesuis (Sc); test: Minimum inhibitory concentration (MIC) in nutrient agar; type: cell-based, Salmonella choleraesuis ATCC 10708; conditions: Salmonella enterica, 48 h
Procedure: as §1, §4, §5, §3

[3] = tested on: Penicillium chrysogenum (Pc); test: Minimum inhibitory concentration (MIC) in malt yeast agar; type: cell-based, Penicillium chrysogenum ATCC 9480; conditions: malt yeast agar; 30° C.; 72 hours for fungi; read-out: Minimum Inhibitory Concentration, Pc
Procedure: as §1, §2, §3

[4] = tested on: Klebsiella pneumoniae (Kp); test: Minimum inhibitory concentration (MIC) in nutrient agar; type: cell-based, Klebsiella pneumoniae ATCC 8308
Procedure: as §1, §4, §5, §3

[5] = tested on: Pseudomonas aeruginosa (Pa); test: as above; type: cell-based, Pseudomonas aeruginosa ATCC 10145; conditions: 48 hours
Procedure: as §1, §4, §5, §3

Escherichia coli (Ec) = test: as above; type: cell-based, Escherichia coli ATCC 11229; conditions: 48 h
Procedure: as §1, §4, §5, §3

[6] = tested on: Saccharomyces cerevisiae (Sc); test: Minimum inhibitory concentration (MIC) in malt yeast agar; type: cell-based, Saccharomyces cerevisiae ATCC 4105; conditions: malt yeast agar, 30° C., 48 hours for yeast, read-out: Minimum Inhibitory Concentration, Sc
Procedure: as §1, §2, §3

Bacillus subtilis (Bs) = test: Minimum inhibitory concentration (MIC) in nutrient agar; type: cell-based, Bacillus subtilis ATCC 8473
Procedure: as §1, §4, §5, §3

[7] = tested on: Enterobacter aerogenes (Ea); test: as above; type: cell-based, Enterobacter aerogenes ATCC 13048; conditions: Klebsiella aerogenes, 48 h
Procedure: as §1, §4, §5, §3

Proteus vulgaris (Pv) = test: as above; type: cell-based, Proteus vulgaris ATCC 881; conditions: 48 h
Procedure: as §1, §4, §5, §3

Aspergillus niger (An) = test: Minimum inhibitory concentration (MIC) in malt yeast agar; type: cell-based, Aspergillus niger ATCC 16404; conditions: malt yeast agar; 30° C.; 72 hours for fungi; read-out: Minimum Inhibitory Concentration, An
Procedure: as §1, §2, §3

[8] = tested on: Staphylococcus aureus (Sa); test: Minimum inhibitory concentration (MIC) in nutrient agar; type: cell-based, Staphylococcus aureus ATCC 6538
Procedure: as §1, §4, §5, §3

[9] = tested on: Aureobasidium pullulan (Ap); test: Minimum inhibitory concentration (MIC) in malt yeast agar; type: cell-based, Aureobasidium pullulan ATCC 16622; conditions: read-out: Minimum Inhibitory Concentration, Ap
Procedure: as §1, §2, §3

[10] = pH 6.8, read-out: Minimum Inhibitory Concentration, PRD
[11] = pH 8.2, read-out: Minimum Inhibitory Concentration, PRD
[12] = pH 6.8, read-out: Minimum Inhibitory Concentration, Sc
[13] = pH 8.2, read-out: Minimum Inhibitory Concentration, Sc
[14] = 48 h, pH 8.2, read-out: Minimum Inhibitory Concentration, Kp
[15] = pH 6.8, nutrient agar, 30° C., 48 hours, read-out: Minimum Inhibitory Concentration, Kp
[16] = pH 6.8, read-out: Minimum Inhibitory Concentration, Ec
[17] = pH 8.2, read-out: Minimum Inhibitory Concentration, Ec
[18] = pH 6.8, read-out: Minimum Inhibitory Concentration, Ea
[19] = pH 8.2, read-out: Minimum Inhibitory Concentration, Ea
[20] = pH 6.8, read-out: Minimum Inhibitory Concentration, Pv
[21] = pH 8.2, read-out: Minimum Inhibitory Concentration, Pv
[22] = malt yeast agar, 30° C., 72 hours for fungi
[23] = 48 h, pH 6.8, read-out: Minimum Inhibitory Concentration, Bs
[24] = 48 h, pH 8.2, read-out: Minimum Inhibitory Concentration, Bs
[25] = 48 h, pH 8.2, read-out: Minimum Inhibitory Concentration, Sa
[26] = pH 6.8, nutrient agar, 30° C., 48 hours, read-out: Minimum Inhibitory Concentration, Sa

Compound | MIC (Fusarium oxysporum (Fo)) | MIC [1, 10] | MIC [1, 11] | MIC (Candida albicans (Ca)) | MIC [2, 12] | MIC [2, 13] | MIC [3] | MIC [4, 14] | MIC [4, 15] | MIC ([5]; pH 6.8, 30° C.) | MIC ([5]; pH 8.2, 30° C.) | MIC (Escherichia coli (Ec); [16]) | MIC (Escherichia coli (Ec); [17]) | MIC [6] | MIC [7, 18] | MIC [7, 19] | MIC (Proteus vulgaris (Pv); [20]) | MIC (Proteus vulgaris (Pv); [21]) | MIC (Aspergillus niger (An)) | MIC (Trichoderma viride (Tv); [22]) | further results
COc1ccc2nc3c(nc2c1)SC(C#N)=C(C#N)S3 [J, 7-methoxy-1,4-dithiino-(2,3-b)-quinoxaline-2,3-dicarbonitrile] | 25 µg/mL (≈ 83.8 µM) | > 500 µg/mL | > 500 µg/mL | 25 µg/mL (≈ 83.8 µM) | > 500 µg/mL | > 500 µg/mL | 25 µg/mL (≈ 83.8 µM) | > 500 µg/mL | > 500 µg/mL | > 500 µg/mL | > 500 µg/mL | > 500 µg/mL | > 500 µg/mL | < 10 µg/mL | > 500 µg/mL | > 500 µg/mL | > 500 µg/mL | > 500 µg/mL | 25 µg/mL (≈ 83.8 µM) | – | MIC (Trichoderma viride (Tv); 72 h): 100 µg/mL (≈ 335 µM); MIC (Bacillus subtilis (Bs); pH 6.8, nutrient agar, 30° C., 48 hours, read-out: Minimum Inhibitory Concentration, Bs): < 10 µg/mL; MIC (Bacillus subtilis (Bs); pH 8.2, nutrient agar, 30° C., 48 hours, read-out: Minimum Inhibitory Concentration, Bs): 25 µg/mL (≈ 83.8 µM); MIC ([8]; 48 h, pH 6.8, read-out: Minimum Inhibitory Concentration, Sa): < 10 µg/mL; MIC ([8]; pH 8.2, nutrient agar, 30° C., 48 hours, read-out: Minimum Inhibitory Concentration, Sa): 25 µg/mL (≈ 83.8 µM)
N#CC(C#N)=C1Sc2nc3ccc(C(F)(F)F)cc3nc2S1 [T, 6-trifluoromethyl-1,3-dithiolo-(4,5-b)-quinoxaline-2-ylidene-propanedinitrile] | > 500 µg/mL | > 500 µg/mL | > 500 µg/mL | > 500 µg/mL | > 500 µg/mL | > 500 µg/mL | 250 µg/mL (≈ 743 µM) | > 500 µg/mL | > 500 µg/mL | > 500 µg/mL | > 500 µg/mL | > 500 µg/mL | > 500 µg/mL | > 500 µg/mL | > 500 µg/mL | > 500 µg/mL | > 500 µg/mL | > 500 µg/mL | – | > 500 µg/mL | MIC (Bacillus subtilis (Bs); [23]): > 500 µg/mL; MIC (Bacillus subtilis (Bs); [24]): > 500 µg/mL; MIC [9]: 250 µg/mL (≈ 743 µM); MIC [8, 25]: > 500 µg/mL; MIC [8, 26]: > 500 µg/mL
COc1ccc2nc3c(nc2c1)SC(=C(C#N)C#N)S3 [U, 6-Methoxy-1,3-dithiolo-(4,5-b)-quinoxaline-2-ylidene-propanedinitrile] | > 500 µg/mL | > 500 µg/mL | > 500 µg/mL | > 500 µg/mL | > 500 µg/mL | > 500 µg/mL | > 500 µg/mL | > 500 µg/mL | > 500 µg/mL | > 500 µg/mL | > 500 µg/mL | > 500 µg/mL | > 500 µg/mL | > 500 µg/mL | > 500 µg/mL | > 500 µg/mL | > 500 µg/mL | > 500 µg/mL | > 500 µg/mL | > 500 µg/mL | MIC (Bacillus subtilis (Bs); [23]): > 500 µg/mL; MIC (Bacillus subtilis (Bs); [24]): > 500 µg/mL; MIC [8, 25]: > 500 µg/mL; MIC [8, 26]: > 500 µg/mL
